Measured values taken from US20210330611A1, “THERAPY FOR NEUROLOGICAL DISEASES/DISORDERS” (priority 2020, published 2021).
Like-named read-outs stand apart in the source and are kept apart here.

How the values were obtained:
primary rat microglia [1] = test: Cell toxicity (dead cells, size <150 μm2) in coated fibrin (cFib) assay; conditions: for IC50: read-out: Cell Toxicity IC50 (uM) [cFib assay];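 as to Fibrin % cell toxicity: share of dead cells sized under 150 µm2 at 10 µM in fibrin-stimulated microglia HTS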
primary rat microglia [2] = test: Cell toxicity (dead cells, size <150 μm2) in LPS assay; conditions: for IC50: read-out: Cell Toxicity IC50 (uM) [LPS assay]
[3] = system: fibrin- and LPS-induced microglia activation; test: cells; assay type: cell-based, rat; conditions: for Activity: Table 7, fib = fibrin, LPS, tox = toxicity
[4] = system: LPS-induced microglia activation; test: Image-based assay of LPS-induced microglia activation (HTS and dose response); assay type: cell-based, rat; conditions: for inhibition at 10 µM: read-out: LPS % inhibition
[5] = system: fibrin-induced microglia activation; test: Image-based assay of fibrin-induced microglia activation (HTS and dose response); assay type: cell-based, rat; conditions: for inhibition at 10 µM: read-out: Fibrin % inhibition
[6] = primary microglia HTS, fibrin stimulation, decreased size (<150 μm^2) as marker of toxicity
[7] = primary microglia HTS, LPS stimulation, decreased size (<150 μm^2) as marker of toxicity
[8] = quadrant by fibrin and LPS inhibition in HTS of 1907 compounds
[9] = Rattus norvegicus, Microglia, 48 h, primary microglia HTS, LPS stimulation, increased cell size (>800 μm^2) as marker of activation
[10] = Rattus norvegicus, Microglia, primary microglia HTS, fibrin stimulation, increased cell size (>800 μm^2) as marker of activation
[11] = primary microglia HTS, 10 μM, fibrin assay, cell size <150 μm^2 as marker of toxicity
[12] = primary microglia HTS, 10 μM, LPS assay, cell size <150 μm^2 as marker of toxicity
[13] = HTS of 1907 compounds, quadrant by fibrin and LPS inhibition
[14] = primary microglia HTS, fibrin stimulation, toxicity = cell size <150 μm2
[15] = primary microglia HTS, LPS stimulation, toxicity = cell size <150 μm2
[16] = Rattus norvegicus, Microglia, 48 h, primary microglia HTS, LPS stimulation, activation = cell size >800 μm2
[17] = Rattus norvegicus, Microglia, primary microglia HTS, fibrin stimulation, activation = cell size >800 μm2
[18] = primary microglia HTS, LPS stimulation, increased cell size (>800 μm^2) as marker of activation
[19] = primary microglia HTS, fibrin stimulation, increased cell size (>800 μm^2) as marker of activation

With `CC(=O)OCC(=O)[C@@]1(O)CC[C@H]2[C@@H]3CCC4=CC(=O)CC[C@]4(C)[C@H]3[C@@H](O)C[C@@]21C` [Hydrocortisone acetate, reference compound] the “Fibrin % cell toxicity” value (primary rat microglia [1]; [6]) was 4%, the “LPS % cell toxicity” value (primary rat microglia [2]; [7]) was 4% and the “Quadrant (FIG. 5b)” value ([3]; Table 2, screen at 10 μM) was “Q2”. The Activity [3] was “fib/LPS”, the “Quadrant (FIG. 5b)” value [3, 8] was “Q2” and the inhibition at 10 µM [4, 9] was 89%. It also gave an IC50 ([4]; Rattus norvegicus, Microglia, Table 7, read-out: LPS_IC50) of 0.017 µM, an IC50 ([5]; Rattus norvegicus, Microglia, Table 7, read-out: fib_IC50) of 0.01 µM and an inhibition at 10 µM [5, 10] of 112%.

For `Cc1cccc(CN2CCN(C(c3ccccc3)c3ccc(Cl)cc3)CC2)c1` (centres unmarked) [Meclizine], the “Fibrin % cell toxicity” value (primary rat microglia [1]; [6]) was 0%, the “LPS % cell toxicity” value (primary rat microglia [2]; [7]) was 0% and the “Quadrant (FIG. 5b)” value [3, 8] was “Q4”. The inhibition at 10 µM [4, 9] was 12% and the inhibition at 10 µM [5, 10] was -33%.

With `Cc1scc2c1N(C(=O)CN1CCN(C)CC1)c1ccccc1NC2=O` the “Fibrin % cell toxicity” value (primary rat microglia [1]; [11]) was 1%, the “LPS % cell toxicity” value (primary rat microglia [2]; [12]) was 0% and the “Quadrant (FIG. 5b)” value [3, 13] was “Q4”. It also gave an LPS % inhibition ([4]; primary microglia HTS, 10 μM, LPS-stimulated, cell size >800 μm^2 as marker of activation) of 14% and a Fibrin % inhibition ([5]; primary microglia HTS, 10 μM, fibrin-stimulated, cell size >800 μm^2 as marker of activation) of 3%.

In the case of `CC[C@]12CCCN3CCc4c(n(c5ccccc45)[C@@](O)(C(=O)OC)C1)[C@@H]32` [Vincamine], the “Fibrin % cell toxicity” value (primary rat microglia [1]; [11]) is reported as 0%, the “LPS % cell toxicity” value (primary rat microglia [2]; [12]) is reported as 0% and the “Quadrant (FIG. 5b)” value [3, 13] is reported as “Q4”. For the same compound, the inhibition at 10 µM ([4]; Rattus norvegicus, Microglia, primary microglia HTS, 10 μM, LPS-stimulated, cell size >800 μm^2 as marker of activation) was 20% and the inhibition at 10 µM ([5]; Rattus norvegicus, Microglia, primary microglia HTS, 10 μM, fibrin-stimulated, cell size >800 μm^2 as marker of activation) was 1%.

For `CC1=C(C(=O)O)N2C(=O)[C@@H](NC(=O)[C@H](N)c3ccc(O)cc3)[C@H]2SC1` [Cefadroxil], the “Fibrin % cell toxicity” value (primary rat microglia [1]; primary HTS, 10 μM, fibrin assay, dead cells size <150 μm2) was 0%, the “LPS % cell toxicity” value (primary rat microglia [2]; primary HTS, 10 μM, LPS assay, dead cells size <150 μm2) was 0% and the “Quadrant (FIG. 5b)” value ([3]; primary HTS, 10 μM) was “Q4”. For the same compound, the inhibition at 10 µM ([4]; Rattus norvegicus, Microglia, primary HTS, 10 μM, LPS-stimulated primary microglia) was 3% and the inhibition at 10 µM ([5]; Rattus norvegicus, Microglia, primary HTS, 10 μM, fibrin-stimulated primary microglia) was 1%.

With `CCOc1ccccc1OCCN[C@H](C)Cc1ccc(OC)c(S(N)(=O)=O)c1` [Tamsulosin] the “Fibrin % cell toxicity” value (primary rat microglia [1]; [6]) was 1%, the “LPS % cell toxicity” value (primary rat microglia [2]; [7]) was 2% and the “Quadrant (FIG. 5b)” value [3, 8] was “Q1”. It also gave an inhibition at 10 µM [4, 9] of 59% and an inhibition at 10 µM [5, 10] of 20%.

With `Cl.N[C@H]1C(O)O[C@H](CO)[C@@H](O)[C@@H]1O` (some centres unmarked) [Glucosamine Hydrochloride] the “Fibrin % cell toxicity” value (primary rat microglia [1]; [14]) was 1%, the “LPS % cell toxicity” value (primary rat microglia [2]; [15]) was 0% and the “Quadrant (FIG. 5b)” value [3, 8] was “Q4”. For the same compound, the inhibition at 10 µM [4, 16] was 19% and the inhibition at 10 µM [5, 17] was -2%.

For Monensin [reference compound], the “Fibrin % cell toxicity” value (primary rat microglia [1]; [6]) was 3%, the IC50 (primary rat microglia [1]; Table 3) was > 20 µM and the IC50 (primary rat microglia [1]; cFib assay) was > 20 µM. The IC50 (primary rat microglia [1]; cFib assay, Table 6) was > 20 µM, the “LPS % cell toxicity” value (primary rat microglia [2]; [7]) was 6% and the IC50 (primary rat microglia [2]; LPS assay) was 2 µM. For the same compound, the IC50 (primary rat microglia [2]; LPS assay, Table 6) was 2 µM, the IC50 (primary rat microglia [2]; Table 3) was 2 µM and the Hit ([3]; HTS hit classification) was “HIT (Hits were defined as molecules that exhibited greater than 50% inhibition of either fibrin or LPS activation)”. For the same compound, the “Quadrant (FIG. 5b)” value [3, 13] was “Q2”, the “Quadrant (FIG. 5b)” value ([3]; Table 1, screen at 10 μM) was “Q2” and the “Cherry-picked Hit (Suppl. Table 7)” value ([3]; Table 3) was “HIT (Hits were defined as molecules that exhibited greater than 50% inhibition of either fibrin or LPS activation)”. The “Quadrant (FIG. 5b)” value ([3]; Table 3, screen at 10 μM) was “Q2”, the Activity [3] was “fib/LPS” and the “Cherry-picked Hit (Suppl. Table 7)” value ([3]; hit classification in microglia HTS) was “HIT (Hits were defined as molecules that exhibited greater than 50% inhibition of either fibrin or LPS activation)”. The “Cherry-picked Hit (Suppl. Table 7)” value ([3]; microglia HTS, Table 6) was “HIT (Hits were defined as molecules that exhibited greater than 50% inhibition of either fibrin or LPS activation)”, the “Quadrant (FIG. 5b)” value ([3]; microglia HTS, Table 6) was “Q2” and the “Quadrant (FIG. 5b)” value [3, 8] was “Q2”. The LPS_HS ([4]; Hill slope of LPS dose response, Table 7) was −0.48, the IC50 ([4]; LPS-induced microglia activation, dose response, read-out: LPS IC50 (uM) (Suppl. Table 7)) was 0.2 µM and the IC50 ([4]; Table 1, dose response 0.001-20 μM, triplicates, primary rat microglia, 48 h, read-out: LPS IC50) was 0.2 µM. For the same compound, the IC50 ([4]; Table 3, read-out: LPS IC50 (uM) (Suppl. Table 7)) was 0.2 µM, the IC50 ([4]; Table 6, read-out: LPS IC50 (uM) (Suppl. Table 7)) was 0.2 µM and the LPS specificity ([4]; Table 7) was 5.4. For the same compound, the IC50 ([4]; Table 7, read-out: LPS_IC50) was 0.212 µM, the IC50 ([4]; dose response, LPS-induced microglia activation, read-out: LPS IC50) was 0.2 µM and the LPS % inhibition [4, 18] was 117%. For the same compound, the “Fibrin Selectivity” value [5] was 49, the “Fibrin Selectivity (LOG10)” value [5] was 1.69 and the fib_HS ([5]; Hill slope of fibrin dose response, Table 7) was −3.80. For the same compound, the IC50 ([5]; Table 1, dose response 0.001-20 μM, triplicates, primary rat microglia, 48 h, read-out: Fibrin IC50) was 0.004 µM, the IC50 ([5]; Table 3, read-out: Fibrin IC50 (uM) (Suppl. Table 7)) was 0.004 µM and the IC50 ([5]; Table 6, read-out: Fibrin IC50 (uM) (Suppl. Table 7)) was 0.004 µM. For the same compound, the fib specificity ([5]; Table 7) was 0.2, the IC50 ([5]; Table 7, read-out: fib_IC50) was 1.14 µM and the IC50 ([5]; dose response, fibrin-induced microglia activation, read-out: Fibrin IC50) was 0.004 µM. The “Fibrin Selectivity (LOG10)” value ([5]; fibrin vs LPS, LOG10, Table 6) was 1.69, the “Fibrin Selectivity” value ([5]; fibrin vs LPS, Table 6) was 49 and the IC50 ([5]; fibrin-induced microglia activation, dose response, read-out: Fibrin IC50 (uM) (Suppl. Table 7)) was 0.004 µM. It also gave a Fibrin % inhibition [5, 19] of 101%.

For Merbromin, the “Fibrin % cell toxicity” value (primary rat microglia [1]; [6]) was 0%, the “LPS % cell toxicity” value (primary rat microglia [2]; [7]) was 0% and the “Quadrant (FIG. 5b)” value [3, 8] was “Q4”. For the same compound, the LPS % inhibition [4, 18] was 36% and the Fibrin % inhibition [5, 19] was −6%.

For `N[C@H]1CONC1=O` [Levcycloserine], the “Fibrin % cell toxicity” value (primary rat microglia [1]; [14]) was 1%, the “LPS % cell toxicity” value (primary rat microglia [2]; [15]) was 0% and the “Quadrant (FIG. 5b)” value [3, 8] was “Q4”. It also gave an inhibition at 10 µM [4, 16] of 12% and an inhibition at 10 µM [5, 17] of 2%.
